Experiments:
Format in all cases: cell-based
[1] = test system: Human neonatal fibroblasts (nFIB); experiment: Fibroblast proliferation; conditions: in words
Excerpt: (§1) FIGS. 7-10 show the results obtained.

[2] = test system: Human Aortic Smooth Muscle Cells (HASMC); experiment: HASMC proliferation, Coulter cell count; conditions: for Cell number: 24 h incubation, HASMC; for % Diff vs. Ctrl (24 hr): HASMC cell number
Experimental: At approximately 80% confluency, the cells were subcultured using Trypsin-EDTA to detach the cells and Defined Trypsin Inhibitor, DTI to neutralize the cell suspension before centrifugation at 2500 RPM for 8 minutes. The supernatant was aspirated and discarded. The resultant cell pellet was then resuspended in fresh Medium 231. A cell count was performed using a hemocytometer before seeding the experimental 6-well plates at 200,000 cells/well.
Q10 was dissolved in ethanol and the solution was diluted with Medium 231 to the required concentrations. The Vehicle used in preparing the composition comprising about 0.001% to about 60% (w/w) Coenzyme Q10 was composed of MCT, BHT, Glycerol, and Sodium Phosphate buffered to pH 7.2 and subjected to sonication, then diluted with Medium 231 to experimental concentrations.
(§2) D-(+)-Glucose at 10 mM (Peiro et al., Brit. Jour. of Pharmacology 133: 967-974 (2001)) was used as an energy substrate for the production of ATP. The wells of the 6-well plate were incubated with 0-20 μg/ml of CoQ10, 1 μg and 20 μg/ml CoQ10, or 1 μg and 20 μg/ml of the Vehicle of Coenzyme Q10, all in Medium 231. The well plates were incubated at 37° C. and 5% CO2 for specified experimental periods. Medium 231 contains 4.6 mM Glu originally, thus only an additional 5.4 mM added to medium (Dr. Gary D. Shipley, Cascade Biologics, Portland, Oreg.).
The well-plates were decanted to empty the wells of the reagents and any residue was aspirated carefully with an electronic pipettor. 0.5 ml Trypsin-EDTA was added to each well for 5-7 minutes to aid detachment. Upon complete detachment as determined under a microscope, 0.5 ml Medium 231 was added to the resultant cell suspension to neutralize the Trypsin. 0.5 ml of this cell suspension was taken for reading in a Coulter cell counter.
In FIG. 2, HASM Cells were incubated at 37° C. and 5% CO2 with 0-20 μg/ml Coenzyme Q10, The composition comprising about 0.001% to about 60% (w/w) Coenzyme Q10, and the Vehicle(V) used in The composition comprising about 0.001% to about 60% (w/w) Coenzyme Q10. The 6-well plates were incubated for 24 h in Medium 231. After treatment with Trypsin-EDTA and gentle scraping, cells were neutralized with Medium 231 and mixed by pipetting. Samples were then taken for quantification using a Coulter cell counter. (*Significant compared to Ctrl, P<0.05; One-way ANOVA and Dunnett's).

[3] = test system: Human Aortic Smooth Muscle Cells (HASMC); experiment: ATP production in HASMC, Luciferin-Luciferase ATP assay; conditions: 0-20 μg/ml, 24 h, in words
Experimental: We have investigated the effect of Q10 on ATP production in Human Aortic Smooth Muscle Cells (HASMC). This cell line was chosen for the study based on its ability to produce ATP at levels detectable by the Luciferin-Luciferase ATP assay. We also studied the effect of The composition comprising about 0.001% to about 60% (w/w) Coenzyme Q10 on Muscle Cell proliferation.
as §2
After incubation, the medium was removed and replaced with cold (4° C.) 1% w/v Trichloroacetic Acid (TCA) as the lysis buffer. This buffer causes almost instantaneous inhibition of ATPases (Kangas et al., Med Biol 62: 338-343 (1984)). The wells were incubated with TCA at room temperature for 5 min with gentle swirling. […]
HASM Cells were incubated at 37° C. and 5% CO2 with 0-20 μg/ml Coenzyme Q10. […] Samples were then taken for quantification of ATP using the Luciferin-Luciferase ATP Assay. […]

[4] = test system: human neonatal keratinocytes (SC-KC); experiment: In vitro incisional wound model, keratinocyte migration; conditions: versus control, in words
Experimental: (§3) The proliferation and migration of keratinocytes and fibroblasts are paramount to the restoration of the cutaneous architecture. […] To test the effect of Q10 on neonatal fibroblasts and keratinocytes, an in vitro incisional wound model was employed. Cells were seeded in 6-well tissue culture plates with supplemented media and incubated for 48 hours to facilitate a 90% confluency level prior to experimentation. A cross-shaped “wound” gap was made among the near confluent monolayer of cells in the center of each well. Detached cells were then washed off with medium. Each well was then replenished with medium with or without Q10. […] Cell migration was quantified by time and percentage of “wound” gap covered by cells that migrated into the gap field. The percentage of gap filled (PGf) was calculated as PGf=(1−At/A0)×100, where At is the gap area at time t, and A0 is the gap area at time 0. […]
(§4) Human neonatal fibroblasts (nFIB) and human neonatal keratinocytes (SC-KC) were grown to ˜90% confluency in T-75 flasks at which time they were trypsinized and seeded into 6-well tissue culture plates. […] Cell migration was quantified by time and percentage of “wound” gap covered by cells that migrated into the gap field. The percentage of gap filled (PGf) was calculated as PGf=(1−At/A0)×100, where A(t) is the gap area at time t, and A(0) is the gap area at time 0. […]

[5] = test system: Human neonatal fibroblasts (nFIB); experiment: In vitro incisional wound model, fibroblast migration; conditions: versus control, in words
Experimental: as §3, §4

[6] = test system: human neonatal keratinocytes (SC-KC); experiment: Keratinocyte proliferation; conditions: in words
Excerpt: as §1

COC1=C(OC)C(=O)C(C/C=C(\C)CC/C=C(\C)CC/C=C(\C)CC/C=C(\C)CC/C=C(\C)CC/C=C(\C)CC/C=C(\C)CC/C=C(\C)CC/C=C(\C)CCC=C(C)C)=C(C)C1=O [Q-10, 2,3-dimethoxy-5-methyl-6-decaprenyl-1,4-benzoquinone]
Fibroblast proliferation [1]: enhances the migration and proliferation | Cell number ([2]; 1.0 μg/ml): 42.4 10^4 | % Diff vs. Ctrl (24 hr) ([2]; 1.0 μg/ml): 65.1% | Cell number ([2]; 20.0 μg/ml): 63.1 10^4 | % Diff vs. Ctrl (24 hr) ([2]; 20.0 μg/ml): 145.6% | Effect on ATP production [3]: increases ATP production | Effect on ATP production ([3]; listed as Coenzyme Q10): stimulatory effect on ATP production | Keratinocyte migration (rate of gap coverage) [4]: statistically significant increase in the rate of gap coverage | Keratinocyte migration (rate of gap coverage) ([4]; listed as coenzyme Q10): enhances the migration and proliferation | Fibroblast migration (rate of gap coverage) [5]: statistically significant increase in the rate of gap coverage | Fibroblast migration (rate of gap coverage) ([5]; listed as coenzyme Q10): enhances the migration and proliferation | Keratinocyte proliferation [6]: enhances the migration and proliferation
